Data set [1] deals with mouse leukemia L1210 cells. As to the kind of experiment: Growth inhibition of cultured mouse leukemia L1210 cells (living cells counted). The following applies: for IC50: Mus musculus, L1210, L1210 cells, read-out: 50% Inhibitory concentration, Growth inhibition after 24 hours; for antitumor effect on L1210 leukemia cells: in words. The format is cell-based. On the procedure:
The L1210 cells were cultivated at 37° C. overnight and transferred to RPMI (Roswell Park Memorial Institute) 1640 medium containing 20% calf serum at their exponential growth phase so as to give a cell concentration of 4×10^4 cells/ml. The compounds of the present invention were added to the medium at a concentration of 0.02-0.5 μg/ml. […]
(§1) Independently of the above-mentioned experiment, the compounds of the present invention were added to an about 5×10^5 cells/ml L1210 cell suspension in RPMI 1640 medium containing 10% calf serum at a concentration of 0.02-2.5 μg/ml. After 15 minutes, ^14 C-uridine (0.05 μCi/ml) or ^14 C-thymidine (0.05 μCi/ml) was added to the suspension and pulse-labeling was carried out at 37° C. for 60 minutes. The reaction was stopped by addition of a cold 10% trichloroacetic acid solution and an acid-insoluble fraction was precipitated. The precipitate was washed with a cold 5% trichloroacetic acid and the radioactivity was measured.

Data set [2] has as its system L1210 cells. The experiment in a line: Inhibition of RNA synthesis (14C-uridine incorporation) in L1210 cells. The following applies: RPMI 1640 medium containing 10% calf serum, pulse-labeling 37° C. for 60 minutes; for IC50: Mus musculus, L1210, 1 h, read-out: 50% Inhibitory concentration, 14C-Uridine (Inhibition of RNA synthesis). In kind it is cell-based, mouse. The procedure: as §1

For data set [3], the system named is L1210 cells. The experiment in a line: Inhibition of DNA synthesis (14C-thymidine incorporation) in L1210 cells. The format is cell-based, mouse. The following applies: RPMI 1640 medium containing 10% calf serum, pulse-labeling 37° C. for 60 minutes; for IC50: Mus musculus, 1 h, read-out: 50% Inhibitory concentration, 14C-Thymidine (Inhibition of DNA synthesis). The procedure: as §1

The nature of data set [4]: Solubility in solvents. The format is physicochemical. The following applies: for Solubilities: slightly soluble: slightly soluble solvents; for Solubilities: soluble: soluble solvents.
Setting [5] is: RPMI 1640 medium containing 20% calf serum, 37° C., head: after 24 hours (text: 3 days).

Values after ≈ are worked out from the molar mass of the structure shown.

Regarding `CCC1(O)CC(OC2CC(N(C)C)C(OC3CC(O)C(OC4CCC(=O)C(C)O4)C(C)O3)C(C)O2)c2c(cc3c(c2O)C(=O)c2c(O)cc(O)cc2C3=O)C1C(=O)OC` (stereo not shown) [2-hydroxy-aclacinomycin A, reference compound], the IC50 in data set [1] (setting [5]) came out at 0.15 µg/mL (≈ 0.181 µM); in data set [2], 0.14 µg/mL (≈ 0.169 µM); in data set [3] it was 0.9 µg/mL (≈ 1.09 µM).

In the case of `CCC1(O)CC(OC2CC(N(C)C)C(OC3CC(O)C(OC4CCC(O)C(C)O4)C(C)O3)C(C)O2)c2c(cc3c(c2O)C(=O)c2c(O)cc(O)cc2C3=O)C1C(=O)OC` (stereo not shown) [2-hydroxy-aclacinomycin M], the values for the IC50 in data set [1] (setting [5]), in data set [2] and in data set [3] were 0.08 µg/mL (≈ 0.0964 µM), 0.1 µg/mL (≈ 0.12 µM) and 1.2 µg/mL (≈ 1.45 µM), respectively. Besides, the “antitumor effect on L1210 leukemia cells” value in data set [1] was “have an antitumor effect on L1210 leukemia cells”. The “Solubilities: slightly soluble” value in data set [4] is “slightly soluble in water, ether and n-hexane”. In data set [4], the “Solubilities: soluble” value was “soluble in acidic water, methanol, ethanol, n-butanol, acetone, ethyl acetate, chloroform, benzene, toluene, dimethylsulfoxide and methyl cellosolve”.

As to `CCC1(O)CC(OC2CC(N(C)C)C(OC3CC(O)C(OC4CCC(O)C(C)O4)C(C)O3)C(C)O2)c2c(cc3c(c2O)C(=O)c2c(O)cc(O)cc2C3=O)C1C(=O)OC` (stereo not shown) [2-hydroxy-aclacinomycin N], in data set [1] (L1210 cells, RPMI 1640 medium containing 20% calf serum, 37° C., head: after 24 hours (text: 3 days)), the “50% Inhibitory concentration, Growth inhibition after 24 hours” value worked out at 0.095 µg/mL. Besides, in data set [1], the “antitumor effect on L1210 leukemia cells” value is given as “have an antitumor effect on L1210 leukemia cells”. For the same molecule, in data set [4], the “Solubilities: slightly soluble” value is “slightly soluble in water, ether and n-hexane”; the “Solubilities: soluble” value is “soluble in acidic water, methanol, ethanol, n-butanol, acetone, ethyl acetate, chloroform, benzene, toluene, dimethylsulfoxide and methyl cellosolve”. For the same molecule, in data set [2], the “50% Inhibitory concentration, 14C-Uridine (Inhibition of RNA synthesis)” value was 0.18 µg/mL. For the same molecule, in data set [3], the “50% Inhibitory concentration, 14C-Thymidine (Inhibition of DNA synthesis)” value is 1.2 µg/mL.

For the molecule `CCC1(O)CC(OC2CC(N(C)C)C(OC3CC(O)C(O)C(C)O3)C(C)O2)c2c(cc3c(c2O)C(=O)c2c(O)cc(O)cc2C3=O)C1C(=O)OC` (stereo not shown) [2-hydroxy-aclacinomycin S], the IC50 in data set [1] (setting [5]) is 0.7 µg/mL (≈ 0.978 µM). Also, the “antitumor effect on L1210 leukemia cells” value in data set [1] is on record as “have an antitumor effect on L1210 leukemia cells”. In addition, in data set [4], the “Solubilities: slightly soluble” value was “slightly soluble in water, ether and n-hexane”; the “Solubilities: soluble” value was “soluble in acidic water, methanol, ethanol, n-butanol, acetone, ethyl acetate, chloroform, benzene, toluene, dimethylsulfoxide and methyl cellosolve”. The IC50 in data set [2] is 1.3 µg/mL (≈ 1.82 µM).

With `CCC1(O)CC(OC2CC(N(C)C)C(O)C(C)O2)c2c(cc3c(c2O)C(=O)c2c(O)cc(O)cc2C3=O)C1C(=O)OC` (stereo not shown) [2-hydroxy-aclacinomycin T], the IC50 worked out at 0.46 µg/mL (≈ 0.786 µM) in data set [1] (setting [5]) and 1 µg/mL (≈ 1.71 µM) in data set [2]. In addition, the “antitumor effect on L1210 leukemia cells” value in data set [1] is “have an antitumor effect on L1210 leukemia cells”. The “Solubilities: slightly soluble” value in data set [4] was “slightly soluble in water, ether and n-hexane”. The “Solubilities: soluble” value in data set [4] was “soluble in acidic water, methanol, ethanol, n-butanol, acetone, ethyl acetate, chloroform, benzene, toluene, dimethylsulfoxide and methyl cellosolve”.

Values taken from patent publication US4373094A, “Anthracycline derivatives” (Sanraku-Ocean Co., Ltd., priority 1980, dated 1983).
